Like-named read-outs stand apart in the source and are kept apart here.
Legend:
[1] = target: T1, Gal4 DNA binding domain fused to the LBD of LXRα in HEK293 cells (Homo sapiens (Human), UniProt Q13133); experiment: LXR luciferase transcriptional reporter gene assay, agonist mode, LXRα; format: cell-based; settings: for EC50: read-out: Cell LXRα EC50
[2] = target: LXR α LBD protein (Homo sapiens (Human), UniProt Q13133); experiment: LXR α radioligand binding assay (SPA, competition with [3H]TO901317); settings: read-out: LXRα Binding Ki
[3] = target: T2, Gal4 DNA binding domain fused to the LBD of LXRβ in HEK293 cells (Homo sapiens (Human), UniProt P55055); experiment: cell-based; format: cell-based
[4] = target: T1, Gal4 DNA binding domain fused to the LBD of LXRα in HEK293 cells; experiment: LXR luciferase transcriptional reporter gene assay, antagonist mode (200 nM T0901317), LXRα; format: cell-based; settings: for IC50: read-out: Cell LXRα IC50
[5] = target: T2, Gal4 DNA binding domain fused to the LBD of LXRβ in HEK293 cells; experiment: cell-based
[6] = target: LXR β LBD protein (Homo sapiens (Human), UniProt P55055); experiment: biochemical; format: binding; settings: read-out: LXRβ Binding Ki
[7] = antagonist mode, 200 nM T0901317, HEK293 reporter gene assay
[8] = antagonist mode, 200 nM T0901317, HEK293 reporter gene assay, read-out: Cell LXRβ IC50
[9] = agonist mode, read-out: Cell LXRβ EC50
[10] = Biological Test Example 2, agonist mode
[11] = Biological Test Example 2, agonist mode, read-out: Cell LXRβ EC50

T1 sequence (Q13133 209-447): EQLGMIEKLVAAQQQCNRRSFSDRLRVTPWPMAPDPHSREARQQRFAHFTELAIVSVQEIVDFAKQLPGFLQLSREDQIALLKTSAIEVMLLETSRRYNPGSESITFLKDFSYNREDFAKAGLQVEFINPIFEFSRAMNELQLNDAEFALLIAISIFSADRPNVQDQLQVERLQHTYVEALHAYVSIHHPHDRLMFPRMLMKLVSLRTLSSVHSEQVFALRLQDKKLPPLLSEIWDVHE
LXR α LBD protein, sequence (Q13133 209-447): as above
T2 sequence (P55055 222-460 limits assumed): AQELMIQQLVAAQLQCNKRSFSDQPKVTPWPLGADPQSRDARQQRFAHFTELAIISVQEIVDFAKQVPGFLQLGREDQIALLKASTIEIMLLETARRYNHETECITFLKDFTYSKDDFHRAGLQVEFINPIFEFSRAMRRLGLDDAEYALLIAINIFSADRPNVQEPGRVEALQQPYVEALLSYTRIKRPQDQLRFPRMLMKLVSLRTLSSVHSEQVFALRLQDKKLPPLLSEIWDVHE
LXR β LBD protein, sequence (P55055 222-460 limits assumed): as above

Row | Compound | EC50 [1] [nM] | Ki [2] [nM] | Cell LXRβ efficacy [3, 7] | IC50 [3, 8] [nM] | Cell LXRα efficacy [4] | IC50 [4] [nM] | EC50 [5, 9] [nM] | Ki [6] [nM] | Cell LXRα efficacy [1] | EC50 ([1]; agonist mode) [nM] | IC50 [3] [nM] | IC50 [4, 7] [nM] | EC50 [5] [nM] | Cell LXRβ efficacy ([5]; agonist mode) | Cell LXRβ efficacy [3] | Cell LXRβ efficacy [5, 10] [%] | EC50 [5, 11] [nM] | Ki ([6]; Biological Test Example 1) [nM] | Cell LXRβ efficacy [5]
1 | CS(=O)(=O)c1cccc(N2CCN(C[C@H]3CC[C@@](C)(O)CC3)[C@@H](c3ccccc3)C2)c1 (single isomer, unassigned) [48-5] | > 20000 | 1270 | 93% | 118 | 1169 (61) % | 1170 | > 20000 | 123 |  |  |  |  |  |  |  |  |  |  | 
2 | CC[C@@H](O)c1cnc(N2CCN(c3ccc(F)c(S(C)(=O)=O)c3)C[C@H]2C(C)C)nc1C(F)(F)F (single isomer, unassigned) [Cpd No 12-7] |  | 82 | 104 (87) % |  |  |  |  | 9 | 862 (25) % | 862 | 104 | 686 | 49 | 49 (15) % |  |  |  |  | 
3 | CCOC(=O)CN(C)C(=O)c1cnc(N2CCN(c3ccc(F)c(S(C)(=O)=O)c3)C[C@H]2C(C)C)nc1C(F)(F)F [17-16, ethyl (R)-N-(2-(4-(4-fluoro-3-(methylsulfonyl)phenyl)-2-isopropylpiperazin-1-yl)-4-(trifluoromethyl)pyrimidine-5-carbonyl)-N-methylglycinate] |  | 2170 |  |  | 1530 (99) % |  |  | 194 |  | > 20000 | 361 | 1530 | > 20000 |  | 361 (86) % |  |  |  | 
4 | CC(C)[C@@H]1CN(c2ccc(F)c(S(C)(=O)=O)c2)CCN1c1ncc(Cc2ccc(C(C)(C)O)cc2)c(C(F)(F)F)n1 [Cpd No 31-1, (R)-2-(4-((2-(4-(4-fluoro-3-(methylsulfonyl)phenyl)-2-isopropylpiperazin-1-yl)-4-(trifluoromethyl)pyrimidin-5-yl)methyl)phenyl)propan-2-ol] | 2720 | 159 | 115 (124) % |  | 443 (98) % | 443 |  | 18 | 2718 (7) % |  | 115 |  | > 20000 |  |  |  |  |  | 
5 | CS(=O)(=O)c1cccc(N2CCN(C[C@H]3CC[C@]4(CC3)CC4(F)F)[C@@H](c3ccccc3)C2)c1 (single isomer, unassigned) [48-71] | 236 | 50 | 54% | 163 |  | > 10000 |  |  | 236 (57) % |  |  |  |  |  |  | 25 | 75 | 10 | 
6 | CCCCN(C)C(=O)c1cnc(N2CCN(c3ccc(F)c(S(C)(=O)=O)c3)C[C@H]2C(C)C)nc1C(F)(F)F [17-10, (R)-N-butyl-2-(4-(4-fluoro-3-(methylsulfonyl)phenyl)-2-isopropylpiperazin-1-yl)-N-methyl-4-(trifluoromethyl)pyrimidine-5-carboxamide] |  | 558 | 100 (89) % |  | 501 (94) % |  |  | 65 |  | > 20000 | 100 | 501 | > 20000 |  |  |  |  |  | 
7 | Cc1ccc(C2CC2)nc1N1CCN(c2cccc(S(C)(=O)=O)c2)C[C@H]1C(C)C [40-3, (R)-1-(6-cyclopropyl-3-methylpyridin-2-yl)-2-isopropyl-4-(3-(methylsulfonyl)phenyl)piperazine] | > 20000 | 724 | 288 (88) % |  | 2454 (90) % | 2450 |  | 61 |  |  | 288 |  | > 20000 |  |  |  |  |  | 
8 | CC(C)[C@@H]1CN(c2ccc(F)c(S(C)(=O)=O)c2)CCN1c1ncc(CN2CCOCC2)c(C(F)(F)F)n1 [Cpd No 15-5, (R)-4-((2-(4-(4-fluoro-3-(methylsulfonyl)phenyl)-2-isopropylpiperazin-1-yl)-4-(trifluoromethyl)pyrimidin-5-yl)methyl)morpholine] |  |  | 221 (105) % |  |  |  |  | 36 | 2592 (12) % | 2590 | 221 | 1160 | 36 | 36 (3) % |  |  |  |  | 
9 | CC(C)[C@@H]1CN(c2ccc(F)c(S(C)(=O)=O)c2)CCN1c1ncc(C(N)=O)c(C(F)(F)F)n1 [Cpd No 17-2, (R)-2-(4-(4-fluoro-3-(methylsulfonyl)phenyl)-2-isopropylpiperazin-1-yl)-4-(trifluoromethyl)pyrimidine-5-carboxamide] |  | 876 |  |  | 3715 (97) % |  |  | 58 | 1789 (17) % | 1790 | 439 | 3720 | 91 |  | 439 (97) % |  |  |  | 91 (10) %
10 | CC(C)[C@@H]1CN(c2ccc(F)c(S(C)(=O)=O)c2)CCN1c1ncc(CN(C)C(C)(C)C)c(C(F)(F)F)n1 [15-6, (R)-N-((2-(4-(4-fluoro-3-(methylsulfonyl)phenyl)-2-isopropylpiperazin-1-yl)-4-(trifluoromethyl)pyrimidin-5-yl)methyl)-N,2-dimethylpropan-2-amine] |  | > 3330 | 1325 (91) % |  | 6215 (98) % |  |  | 360 |  | > 20000 | 1320 | 6220 | > 20000 |  |  |  |  |  | 
11 | COCCN(C)C(=O)c1cnc(N2CCN(c3ccc(F)c(S(C)(=O)=O)c3)C[C@H]2C(C)C)nc1C(F)(F)F [17-12, (R)-2-(4-(4-fluoro-3-(methylsulfonyl)phenyl)-2-isopropylpiperazin-1-yl)-N-(2-methoxyethyl)-N-methyl-4-(trifluoromethyl)pyrimidine-5-carboxamide] | > 20000 |  |  |  |  | 1140 |  | 210 |  |  | 295 |  | > 20000 |  |  |  |  |  | 
12 | CNS(=O)(=O)c1cc(N2CCN(c3ncc(C(C)(C)O)c(C(F)(F)F)n3)[C@H](C(C)C)C2)ccc1F [10-3, (R)-2-fluoro-5-(4-(5-(2-hydroxypropan-2-yl)-4-(trifluoromethyl)pyrimidin-2-yl)-3-isopropylpiperazin-1-yl)-N-methylbenzenesulfonamide] |  | 135 |  |  | 2003 (83) % |  |  | 5 | 646 (35) % | 646 | 242 | 2000 | 69 | 69 (24) % |  |  |  |  | 
13 | CC(C)[C@@H]1CN(c2cc(F)c(CO)c(S(C)(=O)=O)c2)CCN1c1ncc(CO)c(C(F)(F)F)n1 [Cpd No 11-6, (R)-(2-fluoro-4-(4-(5-(hydroxymethyl)-4-(trifluoromethyl)pyrimidin-2-yl)-3-isopropylpiperazin-1-yl)-6-(methylsulfonyl)phenyl)methanol] |  | 71 | 1355 (65) % |  |  |  |  | 2 | 216 (58) % | 216 | 1360 | 3860 | 16 | 16 (46) % |  |  |  |  | 
14 | NS(=O)(=O)c1cccc(N2CCN(C[C@H]3CC[C@@H](C(F)F)CC3)[C@@H](c3ccccc3)C2)c1 (single isomer, unassigned) [48-23] | 319 | 94 | 91% | 408 | 4955 (123) % | 4960 | 97 | 11 | 319 (43) % |  |  |  |  | 14% |  |  |  |  | 
15 | CS(=O)(=O)c1cccc(N2CCN(C[C@H]3C[C@@H]4[C@H](C3)C4(F)F)[C@@H](c3ccccc3)C2)c1 [48-64, (S)-1-(((1R,3r,5S)-6,6-difluorobicyclo[3.1.0]hexan-3-yl)methyl)-4-(3-(methylsulfonyl)phenyl)-2-phenylpiperazine] | 1820 | 397 | 85% | 288 | 4272 (104) % | 4270 |  |  | 1817 (38) % |  |  |  |  |  |  | 11 | 411 | 38 | 
16 | Cc1ccc(N2CCN(c3cccc(S(C)(=O)=O)c3)C[C@H]2C(C)C)nc1C1CC1 [40-2, (R)-1-(6-cyclopropyl-5-methylpyridin-2-yl)-2-isopropyl-4-(3-(methylsulfonyl)phenyl)piperazine] | 3500 | 173 |  |  | 792 (80) % | 792 |  | 14 | 3505 (14) % |  | 146 |  | > 20000 |  | 146 (93) % |  |  |  | 
17 | CC(C)[C@@H]1CN(c2ccc(F)c(S(C)(=O)=O)c2)CCN1c1ncc(C(=O)N(C)CCC(C)(C)O)c(C(F)(F)F)n1 [17-17, (R)-2-(4-(4-fluoro-3-(methylsulfonyl)phenyl)-2-isopropylpiperazin-1-yl)-N-(3-hydroxy-3-methylbutyl)-N-methyl-4-(trifluoromethyl)pyrimidine-5-carboxamide] |  | > 3330 | 684 (93) % |  |  |  |  | 618 |  | > 20000 | 684 | 2610 | > 20000 |  |  |  |  |  | 
